Results as given in patent US7094394B2, “Methods and compositions for controlling biofilm development” (priority 1997, dated 2006).
Entries after “also recorded” stand apart in the source; their conditions may differ.

How the values were obtained:
algC promoter = experiment: Alginate promoter reporter activity (beta-galactosidase), algC; assay type: cell-based, P. aeruginosa strain 8830; conditions: batch culture 48 hours, 10 uM OdDHL or 20 uM BHL
Description: (§1) FIGS. 3a and 3b are alginate promoter studies which show the activity of the alginate promoters algC, and algD. Cultures of P. aeruginosa strain 8830 were grown for 48 hours in batch culture flasks containing EPRI medium. Test flasks were amended by either 10 uM OdDHL (PAI), 20 uM BHL (butyryl-L-homoserine lactone) or both (PAI+BHL). Following incubation, cells were harvested and promoter activity was measured as specific activity of the beta-galactosidase reporter enzyme as normalized to cell protein.
(§2) 4. […] Alginate is a common matrix material in biofilms, and is not exclusive to P. aeruginosa. The sensitivity of P. aeruginosa to HSL activity provides a rapid assay for HSLs that is sensitive and quantitative. The responsiveness of the specific biofilm genes algC and algD to HSL activity allows assays to be performed in liquid or on semi solid medium. This provides the opportunity to perform rapid screening of test molecules for their effect on alginate production.

[1] = tested on: P. aeruginosa PDO100 biofilm; experiment: Biofilm dispersion by BHL in rhlI knockout; assay type: cell-based, Pseudomonas aeruginosa
Description: This hypothesis was investigated by growing biofilms of P. aeruginosa PDOlOO and adding BHL to the influent medium at a concentration of 20 μM after 7 days growth. […] When P. aeruginosa PDOIOO was grown in the absence of BHL, medium flow was turned off after 7 days. Following cessation of flow, no dispersion of cell clusters was observed over the duration of the observation period of 96 hours.

algD promoter = experiment: Alginate promoter reporter activity (beta-galactosidase), algD; assay type: cell-based, P. aeruginosa strain 8830; conditions: batch culture 48 hours, 10 uM OdDHL or 20 uM BHL
Description: as §1, §2

[2] = tested on: P. aeruginosa PAO1 wild-type biofilm; experiment: Average cell to cell distance in biofilm, wild type; assay type: cell-based, Pseudomonas aeruginosa; conditions: 10 uM in growing PAO1 biofilm, 10 days incubation
Description: (§3) 2. Biofilm cell nearest neighbor analysis: This parameter is a measure of the average distance spacing between cells within a biofilm cell cluster or between cells at a substratum. Both measurements are influenced by the presence of the homoserine lactone OdDHL. The nearest neighbor analysis is performed by imaging 20 or more fields in a biofilm reactor and electronically determining the centroid of each cell. The relative distances from a marker cell to all other cells is computed and iterated for each cell in the population. The average nearest neighbor is then calculated. […] When OdDHL is added to the nutrient feed of the mutant defective in the production of that HSL, the average nearest neighbor increases to just over 9 um in distance.
An analog of OdDHL, N-(2,2-difluorodecanoyl)-L-homoserine lactone was dissolved in 25% ethanol, 75% water by volume and added at a final concentration of 10 uM to growing biofilm cultures of P. aeruginosa PAO1 wild-type. Following 10 days incubation, the biofilm was analyzed for cell to cell distances, cell cluster thickness and response to treatment with 0.2% SDS. […] Finally, when treated with 0.2% SDS by weight, the treated biofilm was disrupted and dispersed within 30 minutes (FIGS. 5a to 5f).

[3] = tested on: P. aeruginosa PAO1 wild-type biofilm; experiment: Biofilm cell cluster average thickness, wild type; assay type: cell-based, Pseudomonas aeruginosa; conditions: 10 uM in growing PAO1 biofilm, 10 days incubation
Description: (§4) 1. Biofilm average cell cluster depth: This parameter is a measure of the average thickness in microns of cell clusters in a biofilm. Depth measurements are performed microscopically, by measuring the maximum distance from the substratum to the apex of a biofilm cell cluster at the bulk water interface in a steady state biofilm for a minimum of 20 cell clusters. Previous measurements have shown that with P. aeruginosa, the average cell cluster depth is 102.3 um with a standard error of the mean of 20.5 um. When the gene responsible for the production of the homoserine lactone OdDHL is knocked out, the average cell cluster depth drops to only 22.8 um with a standard error of the mean of 10.0.
Continuous culture studies. […]
(§5) Log phase P. aeruginosa were inoculated through a septum approximately 1 cm upstream from the flow cell while flow was maintained. […] Flow through the system was then increased to remove any bacteria attached to the inside surface of the coverslip (as determined by microscopy). […]
An analog of OdDHL, N-(2,2-difluorodecanoyl)-L-homoserine lactone was dissolved in 25% ethanol, 75% water by volume and added at a final concentration of 10 uM to growing biofilm cultures of P. aeruginosa PAO1 wild-type. Following 10 days incubation, the biofilm was analyzed for cell to cell distances, cell cluster thickness and response to treatment with 0.2% SDS. […]

[4] = tested on: P. aeruginosa PAO1 biofilm cell clusters; experiment: Effect of detergent (0.2% SDS) on biofilm dispersion, wild type; assay type: cell-based, Pseudomonas aeruginosa
Description: SDS on wild-type P. aeruginosa PAO1. The bacteria were grown in EPRI medium in continuous culture for 10 days (a,d). Following the incubation period, 0.2% SDS was added to the reactor and flow was halted for 30 minutes (b,e). Following incubation with SDS, flow was reinitiated (c,f).
(§6) 3. […] It has been shown previously (Davies, Doctoral Thesis, Montana State University, 1996) that matrix polymer, specifically alginate, prevents the dissolution of P.aeruginosa cell clusters treated with 0.2% SDS. However, when cell clusters are formed in the absence of alginate they are completely disrupted in under 30 minutes (FIGS. 2a, 2b, 2c and 2d). By microscopic examination of cell cluster thickness before and after treatment with SDS or by capturing effluent samples following similar treatment, a quantitative evaluation of the effect of agents capable of blocking the production of detergent resistant matrix material can be made.
(§7) In the present experiment, treatment with the detergent was shown not to affect the biofilm in the absence of released alginate lyase.
Following 10 days incubation, the biofilm was analyzed for cell to cell distances, cell cluster thickness and response to treatment with 0.2% SDS. […] Finally, when treated with 0.2% SDS by weight, the treated biofilm was disrupted and dispersed within 30 minutes (FIGS. 5a to 5f).

[5] = tested on: P. aeruginosa PAO-JP1 biofilm; experiment: Biofilm average cell cluster depth, OdDHL knockout; assay type: cell-based, Pseudomonas aeruginosa; conditions: OdDHL added back to nutrient feed of OdDHL knockout; standard error 25.2
Description: as §4
(§8) Continuous culture studies. A continuous culture apparatus was developed to observe the growth and development of biofilms attached to a glass substratum. The apparatus was configured as a once through flow cell system. The influent defined culture medium was retained in a four liter glass reservoir. […]
as §5

[6] = tested on: P. aeruginosa PAO-JP1 biofilm cell clusters; experiment: Effect of detergent (0.2% SDS) on biofilm dispersion, lasI knockout; assay type: cell-based, Pseudomonas aeruginosa
Description: FIGS. 2a, 2b, 2c, and 2d are cell cluster studies which show the effect of the addition of 0.2% SDS to a biofilm cell cluster of the lasI knockout strain P. aerguginosa PAO-JP1. The strain was grown in EPRI medium for 10 days in continuous culture reactor under flowing conditions (a). SDS was added to the culture reactor and flow was turned off for 30 min (b,c). Following incubation in the presence of SDS, flow was reinitiated (d);
as §6, §7

[7] = tested on: P. aeruginosa PAO-JP2 biofilm; experiment: Biofilm architecture recovery in double mutant (microscopy); assay type: cell-based, Pseudomonas aeruginosa; conditions: double mutant cultured with 10 μM OdDHL in fresh medium
Description: The most unequivocal experimental design, to determine the role of HSL signal molecules on the formation of biofilms by cells of P. aeruginosa, was to use direct microscopic methods to monitor biofilm formation by cells of HSL negative mutants. For this reason planktonic cells of a wild-type strain (PAO1), and of three mutants incapable of synthesizing specific HSLs, were introduced into flow cells, and adhesion and biofilm formation were monitored by means of confocal scanning laser microscopy (CSLM). Using these techniques, it is possible to monitor the development of live biofilms of the strains of interest.
as §8, with “reservoir. Medium from the influent reservoir was pumped through silicone tubing via a Masterflex pump to an aeration flask sparged with a filtered air source.” for “reservoir.”
as §5

[8] = tested on: P. aeruginosa JP1 biofilm; experiment: Biofilm cell nearest neighbor analysis, OdDHL knockout; assay type: cell-based, Pseudomonas aeruginosa; conditions: OdDHL (10 uM) added to nutrient feed of OdDHL-defective mutant, at the substratum
Description: as §3

[9] = tested on: P. aeruginosa PAO-JP2 biofilm cell clusters; experiment: Effect of detergent (0.2% SDS) on biofilm dispersion, double mutant; assay type: cell-based, Pseudomonas aeruginosa
Description: as §7

## CCCC(=O)N[C@H]1CCOC1=O [BHL, N-butyryl-L-homoserine lactone]
algC promoter
  algC promoter response: sensitive
[1]; 20 μM BHL in influent medium after 7 days growth, 24 hours
  effect on biofilm with medium flow on: no observable effect
[1]; 20 μM BHL, flow off for 16 hours, detachment continued for three hours
  detachment after medium flow shut off: significant detachment
algD promoter
  algD promoter response: sensitive

## CCCCCCCCC(F)(F)C(=O)N[C@H]1CCOC1=O [N-(2,2-difluorodecanoyl)-L-homoserine lactone]
[2]
  average cell to cell distance: less than 4 um
[3]
  cell cluster average thickness: under 20 um
[4]; PAO1 biofilm grown 10 days with 10 uM blocking agent
  time to disruption and dispersion on treatment with 0.2% SDS: ≤ 30 min
[4]; PAO1 cultured 10 days in presence of 20 uM OdDHL analog, SDS 30 minutes without flow
  cell cluster dispersion after 0.2% SDS and reinitiation of flow: disperses completely

## CCCCCCCCCC(=O)CC(=O)N[C@H]1CCOC1=O [OdDHL, N-(3-oxododecanoyl)-L-homoserine lactone]
[5]
  average cell cluster thickness: 100.1 um
algC promoter
  algC promoter response: sensitive
[6]; PAO-JP1 grown in the presence of 10 μM OdDHL
  dispersion of cell clusters by 0.2% SDS: did not disperse bacteria in the cell clusters
algD promoter
  algD promoter response: sensitive
[7]
  biofilm architecture phenotype: recovery of the intermediary phenotype
[8]
  average nearest neighbor distance: over 9 um

## CCCCCCCCCCCCOS(=O)(=O)[O-].[Na+] [SDS, sodium dodecyl sulfate]
[9]
  dispersion of cell clusters by SDS: disperse completely
[6]; 0.2% SDS, PAO-JP1 without added HSL
  dispersion of cell clusters by SDS: disperse completely
[6]; 0.2% SDS, cell clusters formed in the absence of alginate (FIGS. 2a-2d)
  time to complete disruption of cell clusters by SDS: under 30 minutes
[4]; 0.2% SDS, untreated wild-type PAO1, sulfate
  effect of SDS on cell cluster integrity/dispersion: no effect; also recorded: no dispersion or release of bacteria
